Reference: ChEMBL document CHEMBL1134347, “Structure-activity studies of substituted quinoxalinones as multiple-drug-resistance antagonists” (J Med Chem, 2001)

Tests used:
MCF7 [1] = assay: Cytotoxicity against MCF-7 breast carcinoma cells at 10 ug/mL; type: functional, cell-based; conditions: Homo sapiens
[2] = biological target: Multidrug resistance-associated protein 1 (Homo sapiens, UniProt P33527); assay: The MRP1 antagonism score is the percentage of MCF-7/VP cells surviving in the absence of vincristine to that of in the presence of vincristine.; type: functional
MCF7 [3] = type: functional, Homo sapiens

Chain of Multidrug resistance-associated protein 1 (P33527 whole entry): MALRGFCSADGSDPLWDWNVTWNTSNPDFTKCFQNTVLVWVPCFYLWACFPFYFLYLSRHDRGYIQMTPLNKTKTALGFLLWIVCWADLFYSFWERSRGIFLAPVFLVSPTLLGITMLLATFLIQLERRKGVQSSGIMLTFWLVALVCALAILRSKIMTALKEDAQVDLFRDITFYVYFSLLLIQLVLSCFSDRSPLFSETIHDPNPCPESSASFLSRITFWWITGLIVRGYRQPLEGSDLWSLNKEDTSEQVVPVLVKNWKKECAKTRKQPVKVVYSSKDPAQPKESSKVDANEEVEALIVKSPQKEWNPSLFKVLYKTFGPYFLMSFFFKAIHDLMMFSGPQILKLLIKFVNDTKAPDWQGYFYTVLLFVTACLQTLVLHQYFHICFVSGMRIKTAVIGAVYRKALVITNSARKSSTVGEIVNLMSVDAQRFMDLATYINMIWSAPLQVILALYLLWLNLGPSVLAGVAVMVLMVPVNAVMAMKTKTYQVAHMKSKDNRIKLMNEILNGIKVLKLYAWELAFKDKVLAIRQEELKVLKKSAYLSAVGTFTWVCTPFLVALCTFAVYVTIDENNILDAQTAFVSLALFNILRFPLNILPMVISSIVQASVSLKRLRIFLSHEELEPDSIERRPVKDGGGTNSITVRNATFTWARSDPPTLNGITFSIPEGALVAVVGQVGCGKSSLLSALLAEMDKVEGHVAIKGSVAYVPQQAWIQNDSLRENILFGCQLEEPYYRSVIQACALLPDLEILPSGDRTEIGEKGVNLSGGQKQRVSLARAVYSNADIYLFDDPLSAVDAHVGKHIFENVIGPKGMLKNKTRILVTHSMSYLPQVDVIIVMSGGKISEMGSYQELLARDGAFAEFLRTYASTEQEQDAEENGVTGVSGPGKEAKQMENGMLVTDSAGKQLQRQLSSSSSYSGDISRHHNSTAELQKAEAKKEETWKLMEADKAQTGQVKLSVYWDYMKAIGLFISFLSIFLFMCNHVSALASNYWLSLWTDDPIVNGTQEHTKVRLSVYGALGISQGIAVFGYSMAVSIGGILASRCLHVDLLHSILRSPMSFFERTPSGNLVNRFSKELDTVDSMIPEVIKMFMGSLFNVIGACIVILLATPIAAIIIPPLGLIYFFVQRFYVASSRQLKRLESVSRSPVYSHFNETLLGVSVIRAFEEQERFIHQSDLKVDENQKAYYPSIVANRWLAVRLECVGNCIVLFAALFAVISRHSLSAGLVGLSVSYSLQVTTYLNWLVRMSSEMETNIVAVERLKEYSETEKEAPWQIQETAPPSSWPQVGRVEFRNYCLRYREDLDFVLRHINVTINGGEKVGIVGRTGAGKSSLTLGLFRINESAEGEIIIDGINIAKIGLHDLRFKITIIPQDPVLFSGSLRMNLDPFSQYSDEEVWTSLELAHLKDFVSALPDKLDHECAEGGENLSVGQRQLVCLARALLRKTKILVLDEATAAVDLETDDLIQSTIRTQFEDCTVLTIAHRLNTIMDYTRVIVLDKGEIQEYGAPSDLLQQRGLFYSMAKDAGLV

SMILES	IC50 (MCF7 [1])	Ratio [2]	Toxicity (MCF7 [3])
CCOC(=O)c1ccc(OCc2nc3ccccc3n(C)c2=O)cc1	> 74 µM	0.9	–
Nc1ccc(Br)cc1-c1nc2cc3ccccc3cc2nc1O	–	1.3	49%
Cn1c(=O)c(COc2ccccc2)nc2ccccc21	> 94 µM	1	–
Cn1c(=O)c(COc2cccnc2)nc2ccccc21	> 56 µM	1.1	–
Cn1c(=O)c(COc2c(F)c(F)c(F)c(F)c2F)nc2ccccc21	> 70 µM	0.8	–
Nc1ccccc1-c1nc2ccccc2nc1O	–	1.1	22%
Cn1c(=O)c(COc2cccc3ccccc23)nc2ccccc21	20 µM	0.9	–
Cn1c(=O)c(COc2ccc(C(=O)c3ccccc3)cc2)nc2ccccc21	> 67 µM	0.9	–
CN(C)c1cccc(OCc2nc3ccccc3n(C)c2=O)c1	57 µM	0.9	–
Cc1nc2ccccc2nc1O	> 156 µM	1.1	–
Nc1ccccc1-c1nc2cc3ccccc3cc2nc1O	–	1.3	37%
Cn1c(=O)c(COc2ccccc2C(=O)Nc2ccccc2)nc2ccccc21	> 32 µM	1	–
Cn1c(=O)c(Cc2ccccc2)nc2ccccc21	> 100 µM	1.1	–
CNc1ccc(OC)cc1-c1nc2cc3ccccc3cc2nc1O	–	1	25%
Cn1c(=O)c(COc2ccccc2Cc2ccccc2)nc2ccccc21	8.1 µM	1.1	–
CNc1ccc(OC)cc1-c1nc2cc3ccccc3cc2n(C)c1=O	–	2.1	3%
COC(=O)c1ccc(OCc2nc3ccccc3n(C)c2=O)c(OC)c1	71 µM	1.1	–
Cn1c(=O)c(COc2ccc(F)cc2)nc2ccccc21	26 µM	0.8	–
Oc1nc2ccccc2nc1Cc1ccccc1	> 106 µM	1	–
CNc1ccc(OC)cc1-c1nc2ccccc2n(C)c1=O	–	3.5	7%
Cn1c(=O)c(COc2ccc(C#N)cc2)nc2ccccc21	> 43 µM	0.8	–
Cc1cc(OCc2nc3ccccc3n(C)c2=O)ccc1[N+](=O)[O-]	> 77 µM	1.1	–
CNc1ccccc1-c1nc2cc([N+](=O)[O-])ccc2n(C)c1=O	–	1.1	7%
Cc1nc2ccccc2n(C)c1=O	> 144 µM	0.7	–
Cn1c(=O)c(COc2ccc(-c3ccccc3)cc2)nc2ccccc21	30 µM	0.7	–
Cn1c(=O)c(COc2cccc(Nc3ccccc3)c2)nc2ccccc21	25 µM	0.9	–
COc1ccc(CCN(C)CCCC(C#N)(c2ccc(OC)c(OC)c2)C(C)C)cc1OC (stereo not drawn)	> 51 µM	–	–
